# From patent publication US8633251B2, “Derivatives of aminoalkanols, method of obtaining of aminoalkanols and their use” (Uniwersytet Jagiellonski, priority 2008, dated 2014)
# Counter-ions that a name gives are not always drawn. Like-named read-outs stand apart in the source and are kept apart here.
# Assays:
# neurotoxicity (rotarod) = experiment: Neurotoxicity test (TOX), rotarod, mice; format: in vivo
# Method: (§1) In order to define anticonvulsant activity, screening tests were performed, using animal models of seizures. […] Each substance (after dissolving in methylcellulose) was normally tested in doses 30, 100, and 300 mg/kg body weight (b.w.) (mice) or in 30 and 50 mg/kg b.w. (rats) in two possible routes of administration: intraperitoneal (i.p.) or oral (p.o.). Appropriate tests were performed 0.5 and 4 h after administration of the compound. […] (mice) the tests were also performed in doses 10 and 3 mg/kg b.w.
# It is performed with use of rotarod test. The animal is placed on a plastic rod (1 inch in diameter), rotating 6 rpm. The rod is placed on a level discouraging the animal to jump off. […] Neurotoxicity is stated if the animal cannot stay on the rod for 1 min. in any of 3 trials. Normally the test is performed in dose 30 mg/kg b.w. in 4 mice (0.5 h) and in 2 mice (4 h), in the dose 100 mg/kg b.w. in 8 mice (0.5 h) and in 4 mice (4 h) and in the dose 300 mg/kg b.w. in 4 mice (0.5 h) and 2 mice (4 h).
# [1] = system: maximal electroshock seizures; experiment: Maximum Electroshock Seizure (MES) test, mice; format: in vivo
# Method: as §1
# Maximum Electroshock Seizure (MES) test is an electric test, verifying activity towards generalized tonic-clonic seizures (grand mal epilepsy). […] Its procedure consists in administration to an animal a mentioned dose, and after 0.5 or 4 h attaching corneal electrodes (after anesthetic eye-drops: 0.5% tetracaine hydrochloride in 0.9% NaCl) and turning on electric current (60 Hz, 0.2 s, 50 mA (mice) or 150 mA (rats)). […] Normally, in the dose 30 mg/kg b.w. the test is done in 1 mouse after 0.5 or 4 h, in the dose 100 mg/kg b.w.—in 3 mice, and in the dose 300 mg/kg b.w.—in 1 mouse.
# [2] = mice, dose 100 mg/kg b.w., time 0.5 h
# [3] = mice, dose 300 mg/kg b.w., time 0.5 h
# [4] = mice, dose 30 mg/kg b.w., time 0.5 h
# [5] = mice, dose 100 mg/kg b.w., time 4 h
# [6] = mice, dose 300 mg/kg b.w., time 4 h
# [7] = mice, dose 100 mg/kg b.w., 0.5 h
# [8] = mice, dose 300 mg/kg b.w., 0.5 h
# [9] = Mus musculus, 0.5 h, read-out: MES, No. of protected animals/No. of used animals
smiles,measurement,setting,value
"CC[C@H](CO)NCCOc1cc(C)cc(C)c1C [Compound 40, R-(−)-2N-[(2,3,5-trimethylphenoxy)ethyl]amino-1-butanol]","TOX, No. of animals exhibiting motor impairment/no. of used animals",neurotoxicity (rotarod); [2],4/8
same,"TOX, No. of animals exhibiting motor impairment/no. of used animals",neurotoxicity (rotarod); [3],4/4
same,responders at 30 mg/kg,"[1]; Mus musculus, mice, dose 30 mg/kg b.w., time 0.5 h, read-out: MES, No. of protected animals/No. of used animals",100%
same,responders at 100 mg/kg,"[1]; Mus musculus, mice, dose 100 mg/kg b.w., time 0.5 h, read-out: MES, No. of protected animals/No. of used animals (converted)",66.7%
same,responders at 100 mg/kg,"[1]; Mus musculus, mice, dose 100 mg/kg b.w., time 4 h, read-out: MES, No. of protected animals/No. of used animals (converted)",33.3%
"CC[C@@H](CO)NCCOc1cc(C)cc(C)c1C [Compound 41, S-(+)-2N-[(2,3,5-trimethylphenoxy)ethyl]amino-1-butanol]","TOX, No. of animals exhibiting motor impairment/no. of used animals","neurotoxicity (rotarod); mouse, in vivo, 30 mg/kg",3/4
same,"TOX, No. of animals exhibiting motor impairment/no. of used animals","neurotoxicity (rotarod); mouse, in vivo, 100 mg/kg",7/8
same,"TOX, No. of animals exhibiting motor impairment/no. of used animals","neurotoxicity (rotarod); mouse, in vivo, 300 mg/kg",4/4
same,"MES, No. of protected animals/No. of used animals",[1]; [4],1/1
same,"MES, No. of protected animals/No. of used animals",[1]; [2],3/3
"Cc1cc(C)c(C)c(OCCNCC(O)c2ccccc2)c1.Cl (stereo not shown) [Compound 42, R,S-2N-[(2,3,5-trimethylphenoxy)ethyl]amino-1-phenylethanol hydrochloride]","TOX, No. of animals exhibiting motor impairment/no. of used animals",neurotoxicity (rotarod); [4],3/4
same,"TOX, No. of animals exhibiting motor impairment/no. of used animals","neurotoxicity (rotarod); mice, dose 30 mg/kg b.w., time 4 h",1/2
same,"TOX, No. of animals exhibiting motor impairment/no. of used animals",neurotoxicity (rotarod); [2],8/8
same,"TOX, No. of animals exhibiting motor impairment/no. of used animals",neurotoxicity (rotarod); [5],4/4
same,"TOX, No. of animals exhibiting motor impairment/no. of used animals",neurotoxicity (rotarod); [3],4/4
same,"TOX, No. of animals exhibiting motor impairment/no. of used animals",neurotoxicity (rotarod); [6],1/1
same,"MES, No. of protected animals/No. of used animals",[1]; [2],3/3
same,"MES, No. of protected animals/No. of used animals",[1]; [5],1/3
same,"MES, No. of protected animals/No. of used animals",[1]; [3],1/1
"Cc1cc(C)c(OCCN[C@H](C)CO)c(C)c1 [Compound 43, R-(−)-2N-[(2.4.6-trimethylphenoxy)ethyl]amino-1-propanol]","TOX, No. of animals exhibiting motor impairment/no. of used animals",neurotoxicity (rotarod); [4],3/4
same,"TOX, No. of animals exhibiting motor impairment/no. of used animals",neurotoxicity (rotarod); [2],8/8
same,"TOX, No. of animals exhibiting motor impairment/no. of used animals",neurotoxicity (rotarod); [3],4/4
same,"MES, No. of protected animals/No. of used animals",[1]; [2],3/3
"Cc1cc(C)c(OCCNCC(O)c2ccccc2)c(C)c1 (stereo not shown) [Compound 45, R,S-2N-[(2,4,6-trimethylphenoxy)ethyl]amino-1-phenylethanol]","TOX, No. of animals exhibiting motor impairment/no. of used animals",neurotoxicity (rotarod); [3],3/4
same,"MES, No. of protected animals/No. of used animals",[1]; [2],3/3
same,"MES, No. of protected animals/No. of used animals",[1]; [3],1/1
same,"MES, No. of protected animals/No. of used animals",[1]; [6],1/1
"Cc1cccc(C)c1OCCCN[C@H](C)CO [Compound 52, R-(−)-2N-[(2,6-dimethylphenoxy)propyl]amino-1-propanol hydrochloride]","TOX, No. of animals exhibiting motor impairment/no. of used animals","neurotoxicity (rotarod); mice, dose 10 mg/kg b.w., 0.5 h",1/4
same,"TOX, No. of animals exhibiting motor impairment/no. of used animals",neurotoxicity (rotarod); [7],6/8
same,"TOX, No. of animals exhibiting motor impairment/no. of used animals","neurotoxicity (rotarod); mice, dose 100 mg/kg b.w., 4 h",1/4
same,"TOX, No. of animals exhibiting motor impairment/no. of used animals",neurotoxicity (rotarod); [8],3/4
same,responders at 30 mg/kg,[1]; [9],100%
same,responders at 100 mg/kg,[1]; [9],66.7%
same,responders at 300 mg/kg,"[1]; Mus musculus, 4 h, read-out: MES, No. of protected animals/No. of used animals",100%
"Cc1cccc(C)c1OCC(=O)NC(C)CO (stereo not shown) [Compound 60, R,S-2N-[(2,6-dimethylphenoxy)acetyl]amino-1-propanol]","TOX, No. of animals exhibiting motor impairment/no. of used animals",neurotoxicity (rotarod); [7],2/8
same,"TOX, No. of animals exhibiting motor impairment/no. of used animals","neurotoxicity (rotarod); mice, dose 100 mg/kg b.w., 4 h",2/4
same,"TOX, No. of animals exhibiting motor impairment/no. of used animals",neurotoxicity (rotarod); [8],4/4
same,"MES, No. of protected animals/No. of used animals",[1]; [8],1/1
"Cc1cccc(C)c1OCC(=O)N[C@@H](C)CO [Compound 62, S-(−)-2N-[(2,6-dimethylphenoxy)acetyl]amino-1-propanol]","TOX, No. of animals exhibiting motor impairment/no. of used animals","neurotoxicity (rotarod); mice, dose 30 mg/kg b.w., 0.5 h",1/4
same,"TOX, No. of animals exhibiting motor impairment/no. of used animals",neurotoxicity (rotarod); [7],3/8
same,"TOX, No. of animals exhibiting motor impairment/no. of used animals","neurotoxicity (rotarod); mice, dose 100 mg/kg b.w., 4 h",1/4
same,"TOX, No. of animals exhibiting motor impairment/no. of used animals",neurotoxicity (rotarod); [8],3/4
same,"TOX, No. of animals exhibiting motor impairment/no. of used animals","neurotoxicity (rotarod); mice, dose 300 mg/kg b.w., 4 h",1/2
same,"MES, No. of protected animals/No. of used animals",[1]; [8],1/1
same,"MES, No. of protected animals/No. of used animals","[1]; mice, dose 300 mg/kg b.w., 4 h",1/1
"CCC(O)CNC(=O)COc1c(C)cccc1C (stereo not shown) [Compound 63, R,S-1N-[(2,6-dimethylphenoxy)acetyl]amino-2-butanol]","TOX, No. of animals exhibiting motor impairment/no. of used animals",neurotoxicity (rotarod); [8],4/4
same,"MES, No. of protected animals/No. of used animals",[1]; [8],1/1
"Cc1cccc(Cl)c1OCC(=O)NC(C)CO (stereo not shown) [Compound 69, R,S-2N-[(2-chlor-6-methylphenoxy)acetyl]amino-1-propanol]","TOX, No. of animals exhibiting motor impairment/no. of used animals",neurotoxicity (rotarod); [7],1/8
same,"TOX, No. of animals exhibiting motor impairment/no. of used animals",neurotoxicity (rotarod); [8],1/4
same,"MES, No. of protected animals/No. of used animals",[1]; [8],1/1
"Cc1cccc(Cl)c1OCC(=O)N[C@H](C)CO [Compound 70, R-(−)-2N-[(2-chlor-6-methylphenoxy)acetyl]amino-1-propanol]","TOX, No. of animals exhibiting motor impairment/no. of used animals",neurotoxicity (rotarod); [8],3/4
same,"MES, No. of protected animals/No. of used animals",[1]; [8],1/1
